Laboratory results from paper PMC7979765, “trans-Translation inhibitors bind to a novel site on the ribosome and clear Neisseria gonorrhoeae in vivo” (Nature Communications, 2021).
≈ marks a conversion by molar mass, not a printed value. Where “and” joins values, the source holds several entries; their conditions need not be identical. Identical values can stand only once.

Experiments:
trans-translation = test: microbe, parasite or virus in culture; type: cell-based, Escherichia coli; settings: for IC50: Eco Luc reporter, one value per replicate, read-out: IC50; for Luminescence readout (Envision plate reader) / Luminescence, background subtracted (DMSO control): per replicate
Protocol: To verify that MBX-4132 retains activity as an inhibitor of trans-translation, we measured its dose-dependent activity against the non-stop luciferase reporter assay strain E. coli SB75 ΔtolC::kan (pluc-trpAt) essentially as described, with modifications. Briefly, serial 1.5-fold dilutions of MBX-4132 in DMSO were transferred to 96-well assay plates (Costar 3195), followed by the addition of 50 µl of an overnight culture of SB75 ΔtolC::kan (pluc-trpAt) that had been diluted to a final OD600 of 0.4 with LB media supplemented with 100 µg ampicillin/ml and 1 mM IPTG. […] The assay plates were incubated at room temperature for 2 h, and 50 µl of BrightGlo (Promega) bioluminescence reagent was added to each well. After 10 min incubation, bioluminescence intensity was measured using an Envision multi-label plate reader (Perkin Elmer). Each assay comprised three technical replicates, and the experiment was repeated three times. The fold induction for each MBX-4132 treated sample as compared to the DMSO-only sample was calculated for each technical replicate, and the average and standard deviation of the three technical was calculated. The IC50 was determined using a 4-parameter nonlinear curve fitting algorithm (GraphPad Prism).

Neisseria gonorrhoeae = test: MIC, microbroth dilution, G77L medium; type: cell-based; settings: Neisseria gonorrhoeae ATCC 49226; source data, individual replicates
HeLa cells [1] = test: Mammalian cell cytotoxicity (CC50); type: cell-based, human; settings: HeLa, replicates
Protocol: The half maximal cytotoxic concentration (CC50) of each compound against HeLa cells (ATCC CCL-2) was measured as previously described. […] The mean values for each biological replicate were averaged, and the CC50 was determined using a 4-parameter nonlinear curve fitting algorithm (GraphPad Prism). The average of the CC50s from two biological replicates was calculated and reported.

[2] = Liver microsome stability, murine; type: in vitro ADME, mouse; settings: murine liver microsomes; for Average MLMS t½: average of replicates; for MLMS t½: individual replicates
In short: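 Compounds incubated with liver microsomes plus NADPH over 30 min; parent remaining quantified by reverse-phase LC/MS. Half-life from linear regression over several time points.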

[3] = Aqueous solubility (nephelometric); type: physicochemical; settings: for Solubility: single replicates
Escherichia coli = test: microbe, parasite or virus in culture; type: cell-based; settings: E. coli KLE701 (ΔtolC::tet); source data, individual replicates
HeLa cells [4] = test: Mammalian cell cytotoxicity (CC50); type: cell-based, human; settings: one value per replicate

Structure (SMILES)	IC50 (trans-translation)	MIC (Neisseria gonorrhoeae)	NORMALIZED DATA (Fraction DMSO Control) (HeLa cells [1]; [CMPD] 0.78125 µM)	NORMALIZED DATA (Fraction DMSO Control) (HeLa cells [1]; [CMPD] 1.5625 µM)	NORMALIZED DATA (Fraction DMSO Control) (HeLa cells [1]; [CMPD] 3.125 µM)	NORMALIZED DATA (Fraction DMSO Control) (HeLa cells [1]; [CMPD] 6.25 µM)	NORMALIZED DATA (Fraction DMSO Control) (HeLa cells [1]; [CMPD] 12.5 µM)	NORMALIZED DATA (Fraction DMSO Control) (HeLa cells [1]; [CMPD] 25 µM)	NORMALIZED DATA (Fraction DMSO Control) (HeLa cells [1]; [CMPD] 50 µM)	NORMALIZED DATA (Fraction DMSO Control) (HeLa cells [1]; [CMPD] 100 µM)	Average MLMS t½ [2]	MLMS t½ [2]	Average solubility [3]	Solubility [3]	MIC (Escherichia coli)	CC50 (HeLa cells [4])	further results
Fc1ccc(-c2nnc(NCc3ccc(Cl)cc3)o2)cc1 [MBX-3776]	≥ 25 µM	>=30.372 µg/ml	0.9425 Fraction DMSO Control and 0.9291 Fraction DMSO Control and 1.002 Fraction DMSO Control and 0.9674 Fraction DMSO Control and 0.9349 Fraction DMSO Control and 0.9583 Fraction DMSO Control	0.9887 Fraction DMSO Control and 1.033 Fraction DMSO Control and 1.0461 Fraction DMSO Control and 0.981 Fraction DMSO Control and 0.9949 Fraction DMSO Control and 1.019 Fraction DMSO Control	0.9887 Fraction DMSO Control and 0.9933 Fraction DMSO Control and 1.016 Fraction DMSO Control and 0.9805 Fraction DMSO Control and 0.9905 Fraction DMSO Control and 1.024 Fraction DMSO Control	0.964 Fraction DMSO Control and 0.9895 Fraction DMSO Control and 1.009 Fraction DMSO Control and 1.011 Fraction DMSO Control and 0.9848 Fraction DMSO Control and 0.9995 Fraction DMSO Control	0.9916 Fraction DMSO Control and 1.003 Fraction DMSO Control and 0.985 Fraction DMSO Control and 0.9785 Fraction DMSO Control and 0.9711 Fraction DMSO Control and 0.9946 Fraction DMSO Control	0.8342 Fraction DMSO Control and 0.8793 Fraction DMSO Control and 0.8796 Fraction DMSO Control and 0.8381 Fraction DMSO Control and 0.8221 Fraction DMSO Control and 0.8915 Fraction DMSO Control	0.8682 Fraction DMSO Control and 0.9316 Fraction DMSO Control and 0.8851 Fraction DMSO Control and 0.8718 Fraction DMSO Control and 0.8862 Fraction DMSO Control and 0.9022 Fraction DMSO Control	0.8662 Fraction DMSO Control and 0.9027 Fraction DMSO Control and 0.8885 Fraction DMSO Control and 0.8759 Fraction DMSO Control and 0.8519 Fraction DMSO Control and 0.9047 Fraction DMSO Control	5.3 min	4.3 min and 6.3 min	25 µM	25 µM (≈ 7.59 µg/mL)	>=30.372 µg/ml	≥ 100 µM	–
Cc1ccc(S(=O)(=O)Nc2nnc(-c3ccc(F)cc3)o2)cc1 [MBX-4063]	≥ 25 µM	>=33.3 µg/ml	1.183 Fraction DMSO Control and 0.9487 Fraction DMSO Control and 1.005 Fraction DMSO Control	1.094 Fraction DMSO Control and 0.958 Fraction DMSO Control and 0.97 Fraction DMSO Control	1.091 Fraction DMSO Control and 0.9572 Fraction DMSO Control and 1.016 Fraction DMSO Control	1.076 Fraction DMSO Control and 0.9091 Fraction DMSO Control and 0.9832 Fraction DMSO Control	1.0577 Fraction DMSO Control and 0.9473 Fraction DMSO Control and 0.9636 Fraction DMSO Control	1.026 Fraction DMSO Control and 0.9338 Fraction DMSO Control and 0.9374 Fraction DMSO Control	1.123 Fraction DMSO Control and 0.9526 Fraction DMSO Control and 0.9567 Fraction DMSO Control	1.06 Fraction DMSO Control and 0.9108 Fraction DMSO Control and 0.964 Fraction DMSO Control	<5 min	<5 min	100 µM	100 µM (≈ 33.3 µg/mL)	>=33.334 µg/ml	≥ 100 µM	–
O=C(Nc1nnc(C2CCCCC2)o1)c1ccc(Cl)cc1 [MBX-4370]	0.12 µM and 0.122 µM and 0.145 µM	0.2388 µg/mL and 0.1196 µg/mL	1.07 Fraction DMSO Control and 1.036 Fraction DMSO Control and 1.021 Fraction DMSO Control and 1.042 Fraction DMSO Control and 1.024 Fraction DMSO Control and 0.9956 Fraction DMSO Control	1.061 Fraction DMSO Control and 1.02 Fraction DMSO Control and 0.9814 Fraction DMSO Control and 1.082 Fraction DMSO Control and 1.03 Fraction DMSO Control and 0.9471 Fraction DMSO Control	1.05 Fraction DMSO Control and 1.039 Fraction DMSO Control and 0.9574 Fraction DMSO Control and 1.045 Fraction DMSO Control and 1.018 Fraction DMSO Control and 0.9296 Fraction DMSO Control	1.047 Fraction DMSO Control and 1.02 Fraction DMSO Control and 0.985 Fraction DMSO Control and 1.025 Fraction DMSO Control and 0.9985 Fraction DMSO Control and 0.9262 Fraction DMSO Control	0.7981 Fraction DMSO Control and 0.8325 Fraction DMSO Control and 0.8129 Fraction DMSO Control and 0.8056 Fraction DMSO Control and 0.7525 Fraction DMSO Control and 0.7321 Fraction DMSO Control	0.4723 Fraction DMSO Control and 0.5367 Fraction DMSO Control and 0.6164 Fraction DMSO Control and 0.4594 Fraction DMSO Control and 0.5425 Fraction DMSO Control and 0.5809 Fraction DMSO Control	0.2465 Fraction DMSO Control and 0.3246 Fraction DMSO Control and 0.4191 Fraction DMSO Control and 0.3946 Fraction DMSO Control and 0.4088 Fraction DMSO Control and 0.4903 Fraction DMSO Control	0.4495 Fraction DMSO Control and 0.5491 Fraction DMSO Control and 0.5315 Fraction DMSO Control and 0.5237 Fraction DMSO Control and 0.6389 Fraction DMSO Control and 0.5972 Fraction DMSO Control	<5 min	<5 min	50 µM	50 µM (≈ 15.3 µg/mL)	0.4778 µg/mL and 0.9555 µg/mL	18.1 µM and 19.4 µM and 21.8 µM and 14.3 µM and 14.5 µM and 13.7 µM	Luminescence readout (Envision plate reader) (trans-translation; [Compound] 0.046875 µM): 496280 and 436160 and 442680; Luminescence readout (Envision plate reader) (trans-translation; [Compound] 0.0625 µM): 452080 and 467160 and 463360; Luminescence, background subtracted (DMSO control) (trans-translation; [Compound] 0.0625 µM): 23120 and 8920 and 25040; Luminescence readout (Envision plate reader) (trans-translation; [Compound] 0.09375 µM): 467480 and 440040 and 454600; Luminescence readout (Envision plate reader) (trans-translation; [Compound] 0.125 µM): 460600 and 443360 and 458920; Luminescence readout (Envision plate reader) (trans-translation; [Compound] 0.1875 µM): 449320 and 468280 and 463760; Luminescence, background subtracted (DMSO control) (trans-translation; [Compound] 0.1875 µM): 20360 and 10040 and 25440; Luminescence readout (Envision plate reader) (trans-translation; [Compound] 0.25 µM): 454000 and 469520 and 468760; Luminescence, background subtracted (DMSO control) (trans-translation; [Compound] 0.25 µM): 25040 and 11280 and 30440; Luminescence readout (Envision plate reader) (trans-translation; [Compound] 0.375 µM): 472720 and 482560 and 460640; Luminescence, background subtracted (DMSO control) (trans-translation; [Compound] 0.375 µM): 43760 and 24320 and 22320; Luminescence readout (Envision plate reader) (trans-translation; [Compound] 0.5 µM): 517120 and 524880 and 509520; Luminescence, background subtracted (DMSO control) (trans-translation; [Compound] 0.5 µM): 88160 and 66640 and 71200; Luminescence readout (Envision plate reader) (trans-translation; [Compound] 0.75 µM): 547920 and 542080 and 527800; Luminescence, background subtracted (DMSO control) (trans-translation; [Compound] 0.75 µM): 118960 and 83840 and 89480; Luminescence readout (Envision plate reader) (trans-translation; [Compound] 1 µM): 530760 and 535720 and 544960; Luminescence, background subtracted (DMSO control) (trans-translation; [Compound] 1 µM): 101800 and 77480 and 106640; Luminescence readout (Envision plate reader) (trans-translation; [Compound] 1.5 µM): 476080 and 424480 and 540520
